Measured values taken from publication PMC10600881 (ACS Omega, 2023).
In brackets after ≈: the same amount, converted by molar mass. Read-outs that look alike come from different tables or passages of the source.

Tests used:
E. coli (ATCC25922) = experiment: Broth microdilution assay, MIC; assay type: cell-based; settings: Escherichia coli, ATCC25922, read-out: Minimum Inhibitory Concentration
B. subtilis (ATCC 9372) = experiment: Broth microdilution assay, MIC; assay type: cell-based; settings: Bacillus subtilis, ATCC9372, read-out: Minimum Inhibitory Concentration
S. aureus (ATCC 25923) = experiment: Broth microdilution assay, MIC; assay type: cell-based; settings: Staphylococcus aureus, ATCC25923, read-out: Minimum Inhibitory Concentration
[1] = test system: P. aeruginosa (ATCC 29853); experiment: Broth microdilution assay, MIC/MBC; assay type: cell-based; settings: for ratio (MBC/MIC): P. aeruginosa (ATCC 29853); for MBC / MIC: Pseudomonas aeruginosa; for bactericidal or bacteriostatic effect / fold more efficient than amoxicillin: P. aeruginosa; for bactericidal or bacteriostatic effect: MBC/MIC ≤ 4 = bactericidal; for fold more efficient than amoxicillin: from MICs
C. albicans (ATCC 10231) = experiment: Broth microdilution assay, antifungal MIC/MFC; assay type: cell-based, Candida albicans; settings: for ratio (MFC/MIC): C. albicans (ATCC 10231); for MFC / MIC: Candida albicans
[2] = target: T1, M. tuberculosis DHFR enzyme (Mycobacterium tuberculosis, UniProt P9WNX1); experiment: biochemical
T1 sequence (P9WNX1 1-161): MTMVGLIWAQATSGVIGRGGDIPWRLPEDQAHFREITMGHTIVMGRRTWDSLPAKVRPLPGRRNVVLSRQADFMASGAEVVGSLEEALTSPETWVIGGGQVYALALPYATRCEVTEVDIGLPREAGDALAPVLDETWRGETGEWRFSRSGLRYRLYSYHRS

[3] = test system: M. tuberculosis (RCMB 010126); experiment: Microplate alamar blue assay; assay type: cell-based, Mycobacterium tuberculosis; settings: Mycobacterium tuberculosis, RCMB010126, sensitive Mycobacterium tuberculosis (RCMB 010126), MABA
[4] = ATCC29853, read-out: Minimum Inhibitory Concentration
[5] = ATCC10231, read-out: Minimum Inhibitory Concentration

COc1ccc(C=C2SC(N3N=C(c4cccs4)CC3c3cc(OC)ccc3OC)=NC2=O)cc1 (stereo not drawn) [8b, 5-(4-Methoxybenzylidene)-2-(4,5-dihydro-5-(2,5-dimethoxyphenyl)-3-(thiophen-2-yl)pyrazol-1-yl)thiazol-4(5H)-one]
MIC (E. coli (ATCC25922)): > 500 µg/mL | MIC (B. subtilis (ATCC 9372)): 62.5 µg/mL (≈ 124 µM) | MIC (S. aureus (ATCC 25923)): 62.5 µg/mL (≈ 124 µM) | ratio (MBC/MIC) [1]: 8 | MBC ([1]; ATCC29853): 500 µg/mL (≈ 989 µM) | MIC ([1]; ATCC29853): 62.2 µg/mL (≈ 123 µM) | MIC [1, 4]: 62.2 µg/mL (≈ 123 µM) | ratio (MFC/MIC) (C. albicans (ATCC 10231)): 4 | MFC (C. albicans (ATCC 10231); ATCC10231): 125 µg/mL (≈ 247 µM) | MIC (C. albicans (ATCC 10231); ATCC10231): 31.2 µg/mL (≈ 61.8 µM) | MIC (C. albicans (ATCC 10231); [5]): 31.2 µg/mL (≈ 61.8 µM) | IC50 [2]: 18.5 ± 0.61 µM

COc1ccc(OC)c(C2CC(c3cccs3)=NN2C2=NC(=O)CCS2)c1 (stereo not drawn) [10b, 5,6-Dihydro-2-(4,5-dihydro-5-(2,5-dimethoxyphenyl)-3-(thiophen-2-yl)pyrazol-1-yl)-1,3-thiazin-4-one]
MIC (E. coli (ATCC25922)): 125 µg/mL (≈ 311 µM) | MIC (B. subtilis (ATCC 9372)): 62.5 µg/mL (≈ 156 µM) | MIC (S. aureus (ATCC 25923)): 250 µg/mL (≈ 623 µM) | ratio (MBC/MIC) [1]: 4 | bactericidal or bacteriostatic effect [1]: bactericidal | MBC ([1]; ATCC29853): 250 µg/mL (≈ 623 µM) | MIC ([1]; ATCC29853): 62.2 µg/mL (≈ 155 µM) | MIC [1, 4]: 62.2 µg/mL (≈ 155 µM) | ratio (MFC/MIC) (C. albicans (ATCC 10231)): 2 | MFC (C. albicans (ATCC 10231); ATCC10231): 31.2 µg/mL (≈ 77.8 µM) | MIC (C. albicans (ATCC 10231); ATCC10231): 15.6 µg/mL (≈ 38.9 µM) | MIC (C. albicans (ATCC 10231); [5]): 15.6 µg/mL (≈ 38.9 µM) | IC50 [2]: 10.6 ± 0.31 µM

COc1ccc(OC)c(C2CC(c3cccs3)=NN2C(N)=S)c1 (stereo not drawn) [2b, 4,5-Dihydro-5-(2,5-dimethoxyphenyl)-3-(thiophen-2-yl)pyrazole-1-carbothioamide]
MIC (E. coli (ATCC25922)): 62.5 µg/mL (≈ 180 µM) | MIC [3]: 15.6 µg/mL (≈ 44.9 µM) | MIC (B. subtilis (ATCC 9372)): 125 µg/mL (≈ 360 µM) | MIC (S. aureus (ATCC 25923)): 250 µg/mL (≈ 719 µM) | ratio (MBC/MIC) [1]: 8 | MBC ([1]; ATCC29853): 500 µg/mL (≈ 1440 µM) | MIC ([1]; ATCC29853): 62.2 µg/mL (≈ 179 µM) | MIC [1, 4]: 62.2 µg/mL (≈ 179 µM) | ratio (MFC/MIC) (C. albicans (ATCC 10231)): 4 | MFC (C. albicans (ATCC 10231); ATCC10231): 250 µg/mL (≈ 719 µM) | MIC (C. albicans (ATCC 10231); ATCC10231): 62.5 µg/mL (≈ 180 µM) | MIC (C. albicans (ATCC 10231); [5]): 62.5 µg/mL (≈ 180 µM)

CCOC(=O)c1sc(N2N=C(c3cccs3)CC2c2cccs2)nc1C (stereo not drawn) [5a, Ethyl 2-(4,5-dihydro-3,5-di(thiophen-2-yl)pyrazol-1-yl)-4-methylthiazole-5-carboxylate]
MIC (E. coli (ATCC25922)): > 500 µg/mL | MIC [3]: 31.2 µg/mL (≈ 77.4 µM) | MIC (B. subtilis (ATCC 9372)): 3.9 µg/mL (≈ 9.66 µM) | MIC (S. aureus (ATCC 25923)): 62.5 µg/mL (≈ 155 µM) | ratio (MBC/MIC) [1]: >1 | MBC ([1]; ATCC29853): > 500 µg/mL | MIC ([1]; ATCC29853): > 500 µg/mL | MIC [1, 4]: > 500 µg/mL | ratio (MFC/MIC) (C. albicans (ATCC 10231)): 4 | MFC (C. albicans (ATCC 10231); ATCC10231): 500 µg/mL (≈ 1240 µM) | MIC (C. albicans (ATCC 10231); ATCC10231): 125 µg/mL (≈ 310 µM) | MIC (C. albicans (ATCC 10231); [5]): 125 µg/mL (≈ 310 µM)

COc1ccc(OC)c(C2CC(c3cccs3)=NN2C2=NC(=O)C(=C3C(=O)Nc4ccccc43)S2)c1 (stereo not drawn) [9b, 3-(2-(4,5-Dihydro-5-(2,5-dimethoxyphenyl)-3-(thiophen-2-yl)pyrazol-1-yl)-4-oxothiazol-5(4H)-ylidene)indolin-2-one]
MIC (E. coli (ATCC25922)): 125 µg/mL (≈ 242 µM) | MIC (B. subtilis (ATCC 9372)): 125 µg/mL (≈ 242 µM) | MIC (S. aureus (ATCC 25923)): 62.5 µg/mL (≈ 121 µM) | ratio (MBC/MIC) [1]: 2 | bactericidal or bacteriostatic effect [1]: bactericidal | MBC ([1]; ATCC29853): 125 µg/mL (≈ 242 µM) | MIC ([1]; ATCC29853): 62.2 µg/mL (≈ 120 µM) | MIC [1, 4]: 62.2 µg/mL (≈ 120 µM) | ratio (MFC/MIC) (C. albicans (ATCC 10231)): 16 | fungicidal or fungistatic behavior (C. albicans (ATCC 10231); C. albicans, MFC/MIC > 4 = fungistatic): fungistatic | MFC (C. albicans (ATCC 10231); ATCC10231): 500 µg/mL (≈ 968 µM) | MIC (C. albicans (ATCC 10231); ATCC10231): 31.2 µg/mL (≈ 60.5 µM) | MIC (C. albicans (ATCC 10231); [5]): 31.2 µg/mL (≈ 60.5 µM) | IC50 [2]: 22.7 ± 0.55 µM

O=C1N=C(N2N=C(c3cccs3)CC2c2cccs2)SC1=C1C(=O)Nc2ccccc21 (stereo not drawn) [9a, 3-(2-(4,5-Dihydro-3,5-di(thiophen-2-yl)pyrazol-1-yl)-4-oxothiazol-5(4H)-ylidene)indolin-2-one]
MIC (E. coli (ATCC25922)): 125 µg/mL (≈ 270 µM) | MIC [3]: 15.6 µg/mL (≈ 33.7 µM) | MIC (B. subtilis (ATCC 9372)): 125 µg/mL (≈ 270 µM) | MIC (S. aureus (ATCC 25923)): 62.5 µg/mL (≈ 135 µM) | ratio (MBC/MIC) [1]: 2 | fold more efficient than amoxicillin [1]: ~16 fold | bactericidal or bacteriostatic effect [1]: bactericidal | MBC ([1]; ATCC29853): 62.2 µg/mL (≈ 135 µM) | MIC ([1]; ATCC29853): 31.2 µg/mL (≈ 67.6 µM) | MIC [1, 4]: 31.2 µg/mL (≈ 67.6 µM) | ratio (MFC/MIC) (C. albicans (ATCC 10231)): 2 | MFC (C. albicans (ATCC 10231); ATCC10231): 250 µg/mL (≈ 540 µM) | MIC (C. albicans (ATCC 10231); ATCC10231): 125 µg/mL (≈ 270 µM) | MIC (C. albicans (ATCC 10231); [5]): 125 µg/mL (≈ 270 µM)

COc1ccc(OC)c(C=C2SC(N3N=C(c4cccs4)CC3c3cccs3)=NC2=O)c1 (stereo not drawn) [8c, 5-(2,5-Dimethoxybenzylidene)-2-(4,5-dihydro-3,5-di(thiophen-2-yl)pyrazol-1-yl)thiazol-4(5H)-one]
MIC (E. coli (ATCC25922)): 125 µg/mL (≈ 260 µM) | MIC [3]: 7.81 µg/mL (≈ 16.2 µM) | MIC (B. subtilis (ATCC 9372)): 125 µg/mL (≈ 260 µM) | MIC (S. aureus (ATCC 25923)): 62.5 µg/mL (≈ 130 µM) | ratio (MBC/MIC) [1]: 8 | fold more efficient than amoxicillin [1]: ~16 fold | MBC ([1]; ATCC29853): 250 µg/mL (≈ 519 µM) | MIC ([1]; ATCC29853): 31.2 µg/mL (≈ 64.9 µM) | MIC [1, 4]: 31.2 µg/mL (≈ 64.9 µM) | ratio (MFC/MIC) (C. albicans (ATCC 10231)): 2 | MFC (C. albicans (ATCC 10231); ATCC10231): 62.2 µg/mL (≈ 129 µM) | MIC (C. albicans (ATCC 10231); ATCC10231): 31.2 µg/mL (≈ 64.9 µM) | MIC (C. albicans (ATCC 10231); [5]): 31.2 µg/mL (≈ 64.9 µM)
